Reference: ChEMBL document CHEMBL6115030, “Systematic All-Hydrocarbon Stapling Analysis for Cecropin A Generates a Potent and Stable Antimicrobial Peptide” (J Med Chem, 2025)
In brackets after ≈: the same amount, converted by molar mass. Activity calls are given as the source filed them. The calls are words filed in the database; no cut-off is given here. Bridge positions count the residues as written; N and C are the ends. Square brackets hold non-standard residues; d marks the D form. Peptide text beside a SMILES is read from it. S5 = C=CCCC[C@](C)(N)C(=O)O

Experiments:
[1] = tested on: Escherichia coli; assay: Induction of outer membrane synthesis related pathways in Escherichia coli assessed as change in OmpX gene expression at 12.5 uM measured after 2 hrs incubation by PCR analysis; type: functional, organism-based
[2] = tested on: Escherichia coli; assay: Induction of outer membrane synthesis related pathways in Escherichia coli assessed as change in OmpT gene expression at 12.5 uM measured after 2 hrs incubation by PCR analysis; type: functional, organism-based
[3] = Toxicity in C57BL/6 female mouse assessed as haemorrhagic point and blurred white pulp boundary in liver at 25 mg/kg, ip measured during 14 days of study by H and E staining based analysis; type: organism-based; settings: in vivo, 336 h, time 14 day
[4] = tested on: Escherichia coli; assay: Induction of assembly related pathways in Escherichia coli assessed as change in BamA gene expression at 12.5 uM measured after 2 hrs incubation by PCR analysis; type: functional, organism-based
[5] = tested on: Escherichia coli; assay: Induction of LPS transport pathway related genes in Escherichia coli assessed as change in LptD gene expression at 12.5 uM measured after 2 hrs incubation by PCR analysis; type: functional, organism-based
[6] = tested on: Escherichia coli; assay: Induction of multiple envelope stress pathway related pathways in Escherichia coli assessed as change in WcaB gene expression at 12.5 uM measured after 2 hrs incubation by PCR analysis; type: functional, organism-based
[7] = tested on: Cell membrane; assay: Induction of Inner membrane damage in Escherichia coli assessed as increase in […] ONPG intensity at 5 uM measured after 24 hrs incubation by microplate reader based inner membrane permeability assay; type: subcellular
[8] = tested on: Escherichia coli; assay: In vivo antibacterial activity against Escherichia coli intraperitoneally injected into C57BL/6 mouse peritonitis model assessed as reduction in bacterial load in liver at 2.5 mg/kg, ip measured after 48 hrs relative to control; type: functional, organism-based
[9] = Stability of the compound in human serum assessed as peptide degradation by RP-HPLC analysis; type: ADME, cell-free; settings: read-out: T50 (converted)
[10] = tested on: Pseudomonas aeruginosa; assay: Antibacterial activity against Pandrug-resistant Pseudomonas aeruginosa assessed as inhibition of bacterial growth measured after 24 hrs by broth microdilution method; type: functional
[11] = tested on: Pseudomonas aeruginosa; assay: Antibacterial activity against Pseudomonas aeruginosa PAO1 assessed as inhibition of bacterial growth measured after 24 hrs by broth microdilution method; type: functional
[12] = tested on: Escherichia coli; assay: In vivo antibacterial activity against Escherichia coli intraperitoneally injected into C57BL/6 mouse peritonitis model assessed as reduction in bacterial load in spleen at 2.5 mg/kg, ip measured after 48 hrs relative to control; type: functional, organism-based
[13] = tested on: Klebsiella pneumoniae; assay: Antibacterial activity against Klebsiella pneumoniae ATCC 13883 assessed as inhibition of bacterial growth measured after 24 hrs by broth microdilution method; type: functional
[14] = tested on: Klebsiella pneumoniae; assay: Antibacterial activity against Carbapenem-resistant Klebsiella pneumoniae assessed as inhibition of bacterial growth measured after 24 hrs by broth microdilution method; type: functional
[15] = tested on: Escherichia coli; assay: Induction of multiple envelope stress pathway related pathways in Escherichia coli assessed as change in WcaC gene expression at 12.5 uM measured after 2 hrs incubation by PCR analysis; type: functional, organism-based
[16] = tested on: Escherichia coli; assay: Induction of LPS transport pathway related genes in Escherichia coli assessed as change in LptB gene expression at 12.5 uM measured after 2 hrs incubation by PCR analysis; type: functional, organism-based
[17] = Stability of the compound in human serum assessed as remaining peptide by RP-HPLC analysis; type: ADME, cell-free
[18] = Toxicity in C57BL/6 female mouse assessed as juxtaglomerular cells and interstitial fibrous tissues in kidney at 25 mg/kg, ip measured during 14 days of study by H and E staining based analysis; type: organism-based; settings: in vivo, 336 h, time 14 day
[19] = tested on: Escherichia coli; assay: Induction of outer membrane synthesis related pathways in Escherichia coli assessed as change in OmpC gene expression at 12.5 uM measured after 2 hrs incubation by PCR analysis; type: functional, organism-based
[20] = tested on: Escherichia coli; assay: Induction of multiple envelope stress pathway related pathways in Escherichia coli assessed as change in FimA gene expression at 12.5 uM measured after 2 hrs incubation by PCR analysis; type: functional, organism-based
[21] = tested on: NIH3T3; assay: Cytotoxicity against mouse NIH3T3 cells assessed as cell viability measured upto 50 uM incubated for 24 hrs by CCK-8 assay; type: toxicity, cell-based; settings: nih3t3, 24 h
[22] = tested on: Salmonella typhimurium; assay: Antibacterial activity against Salmonella typhimurium assessed as inhibition of bacterial growth measured after 24 hrs by broth microdilution method; type: functional, Salmonella enterica subsp. enterica serovar Typhimurium; settings: Salmonella enterica
[23] = Toxicity in C57BL/6 mouse assessed as death at 50 mg/kg, ip measured on day 4; type: organism-based; settings: in vivo, 96 h, time 4 day
[24] = Toxicity in C57BL/6 mouse assessed as increase in body weight at 25 mg/kg, ip measured during 14 days of study; type: organism-based; settings: in vivo, 336 h, time 14 day
[25] = tested on: Escherichia coli; assay: In vivo antibacterial activity against Escherichia coli intraperitoneally injected into C57BL/6 mouse peritonitis model assessed as reduction in bacterial load in blood at 2.5 mg/kg, ip measured after 48 hrs relative to control; type: functional, organism-based
[26] = tested on: Escherichia coli; assay: Induction of metabolism related pathways in Escherichia coli assessed as protein synthesis pathway mRNAs at 12.5 uM measured after 2 hrs incubation by PCR analysis; type: functional, organism-based
[27] = tested on: Escherichia coli; assay: Induction of assembly related pathways in Escherichia coli assessed as change in BamD gene expression at 12.5 uM measured after 2 hrs incubation by PCR analysis; type: functional, organism-based
[28] = Toxicity in C57BL/6 mouse assessed as death at 25 mg/kg, ip measured during 14 days of study; type: organism-based; settings: in vivo, 336 h, time 14 day
[29] = tested on: Acinetobacter baumannii; assay: Antibacterial activity against Pandrug-resistant Acinetobacter baumannii assessed as inhibition of bacterial growth measured after 24 hrs by broth microdilution method; type: functional
[30] = tested on: Escherichia coli; assay: Induction of LPS transport pathway related genes in Escherichia coli assessed as change in LptE gene expression at 12.5 uM measured after 2 hrs incubation by PCR analysis; type: functional, organism-based
[31] = tested on: Escherichia coli; assay: Induction of LPS transport pathway related genes in Escherichia coli assessed as change in LptG gene expression at 12.5 uM measured after 2 hrs incubation by PCR analysis; type: functional, organism-based
[32] = tested on: Escherichia coli; assay: Induction of metabolism related pathways in Escherichia coli assessed as lipid metabolism pathway mRNAs at 12.5 uM measured after 2 hrs incubation by PCR analysis; type: functional, organism-based
[33] = tested on: Cell membrane; assay: Induction of Outer membrane damage in Escherichia coli assessed as increase in NPN intensity at 5 uM measured after 24 hrs incubation by microplate reader based outer membrane permeability assay; type: subcellular
[34] = tested on: Cell membrane; assay: Induction of Outer membrane damage in Escherichia coli assessed as pore formation and surface rupture at 5 uM measured after 24 hrs by SEM imaging analysis; type: subcellular
[35] = tested on: Shigella flexneri; assay: Antibacterial activity against Shigella flexneri 301 assessed as inhibition of bacterial growth measured after 24 hrs by broth microdilution method; type: functional
[36] = tested on: Pseudomonas aeruginosa; assay: Antibacterial activity against Carbapenem-resistant Pseudomonas aeruginosa assessed as inhibition of bacterial growth measured after 24 hrs by broth microdilution method; type: functional
[37] = tested on: Escherichia coli; assay: In vivo antibacterial activity against Escherichia coli intraperitoneally injected into C57BL/6 mouse peritonitis model assessed as mouse survival at 2.5 mg/kg, ip measured after 48 hrs relative to control; type: functional
[38] = tested on: Mus musculus; assay: In vivo anti-inflammatory efficacy in Escherichia coli intraperitoneally injected into C57BL/6 mouse peritonitis model assessed as reduction in IL-1beta level in blood at 2.5 mg/kg, ip measured after 48 hrs by ELISA; type: functional, organism-based
[39] = tested on: Escherichia coli; assay: Induction of metabolism related pathways in Escherichia coli assessed as energetic metabolism pathway mRNAs at 12.5 uM measured after 2 hrs incubation by PCR analysis; type: functional, organism-based

With `CC[C@H](C)[C@H](NC(=O)CNC(=O)[C@H](CC(=O)O)NC(=O)[C@H](CCCNC(=N)N)NC(=O)[C@@H](NC(=O)[C@H](CC(N)=O)NC(=O)[C@H](CCC(N)=O)NC(=O)CNC(=O)[C@@H](NC(=O)[C@H](CCCCN)NC(=O)[C@H](CCC(=O)O)NC(=O)[C@@H](NC(=O)[C@H](CCCCN)NC(=O)[C@H](CCCCN)NC(=O)[C@H](Cc1ccccc1)NC(=O)[C@H](CC(C)C)NC(=O)[C@H](CCCCN)NC(=O)[C@H](Cc1c[nH]c2ccccc12)NC(=O)[C@H](CCCCN)NC(C)=O)[C@@H](C)CC)C(C)C)[C@@H](C)CC)C(=O)N[C@H](C(=O)N[C@@H](CCCCN)C(=O)N[C@@H](C)C(=O)NCC(=O)N1CCC[C@H]1C(=O)N[C@@H](C)C(=O)N[C@H](C(=O)N[C@@H](C)C(=O)N[C@H](C(=O)N[C@H](C(=O)NCC(=O)N[C@@H](CCC(N)=O)C(=O)N[C@@H](C)C(=O)N[C@@]1(C)CCC/C=C\CCC[C@@](C)(C(N)=O)NC(=O)[C@H](C)NC(=O)[C@H]([C@@H](C)CC)NC(=O)[C@H](CCC(N)=O)NC1=O)C(C)C)C(C)C)C(C)C)[C@@H](C)CC` (Ac-KWKLFKKIEKVGQNIRDGIIKAGPAVAVVGQA[S5]QIA[S5]-NH2; staple (Z) 33-37) the Activity [1] was “Active”, the Activity [2] was “Active” and the Activity [3] was “Non-toxic”. For the same compound, the Activity [4] was “Active”, the Activity [5] was “Active” and the Activity [6] was “Active”. For the same compound, the Activity [7] was “Active”, the Activity [8] was “Active; Compound Showed Enhanced Bacterial Elimination Than Cec-0 And Compound Showed Comparable Bacterial Elimination To Polymyxin B” and the half-life [9] was 9.85 h. For the same compound, the MIC [10] was 12.5 µM (≈ 50.8 µg/mL), the MIC [11] was 6.25 µM (≈ 25.4 µg/mL) and the Activity [12] was “Active; Compound Showed Enhanced Bacterial Elimination Than Cec-0”. The MIC [13] was 3.13 µM (≈ 12.7 µg/mL), the MIC [14] was 6.25 µM (≈ 25.4 µg/mL) and the Activity [15] was “Active”. The Activity [16] was “Active”, the Stability [17] was > 50% and the Activity [18] was “Non-toxic”. For the same compound, the Activity [19] was “Active”, the Activity [20] was “Active” and the Activity [21] was “Non-toxic”. The MIC [22] was 3.13 µM (≈ 12.7 µg/mL), the Activity [23] was “Toxic” and the Activity [24] was “Toxic”. For the same compound, the Activity [25] was “Active; Compound Showed Enhanced Bacterial Elimination Than Cec-0 And Compound Showed Comparable Bacterial Elimination To Polymyxin B”, the Activity [26] was “Active” and the Activity [27] was “Active”. The Activity [28] was “Non-toxic”, the MIC [29] was < 0.78 µM and the Activity [30] was “Active”. For the same compound, the Activity [31] was “Active”, the Activity [32] was “Active” and the Activity [33] was “Active”. For the same compound, the Activity [34] was “Active”, the MIC [35] was 1.56 µM (≈ 6.34 µg/mL) and the MIC [36] was > 100 µM. For the same compound, the Activity [37] was 67%, the Activity [38] was “Active” and the Activity [39] was “Active”.
